This is an account of results in US20260138959A1, “QUINAZOLINE DERIVATIVE COMPOUND AND USE THEREOF” (VORONOI INC., priority 2021, published 2026).

The subject of test [1] is c-KIT V560G/D816V. As to the kind of experiment: Proliferation inhibitory activity on Ba/F3 cell (CellTiter-Glo, 72 hours), c-KIT V560G/D816V. In kind it is cell-based. The conditions noted are these: read-out: Cell (nM) c-KIT V560G/D816V (GI50 class). In outline: (§1)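 Cells seeded (3×10^3/well), then twelve 3-fold compound concentrations added to 0.00005-10 μM final alongside DMSO control. Plates incubated 72 h at 37 °C. CellTiter-Glo reagent mixed in for ~10 min at room temperature before reading; GI50 fitted from vehicle-normalised data.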

In test [2] the target is T1, human PDGFR-β(wt) (Homo sapiens, UniProt P09619).
T1 construct: purchased Signalchem P13-11G
T1 sequence (P09619 33-1106): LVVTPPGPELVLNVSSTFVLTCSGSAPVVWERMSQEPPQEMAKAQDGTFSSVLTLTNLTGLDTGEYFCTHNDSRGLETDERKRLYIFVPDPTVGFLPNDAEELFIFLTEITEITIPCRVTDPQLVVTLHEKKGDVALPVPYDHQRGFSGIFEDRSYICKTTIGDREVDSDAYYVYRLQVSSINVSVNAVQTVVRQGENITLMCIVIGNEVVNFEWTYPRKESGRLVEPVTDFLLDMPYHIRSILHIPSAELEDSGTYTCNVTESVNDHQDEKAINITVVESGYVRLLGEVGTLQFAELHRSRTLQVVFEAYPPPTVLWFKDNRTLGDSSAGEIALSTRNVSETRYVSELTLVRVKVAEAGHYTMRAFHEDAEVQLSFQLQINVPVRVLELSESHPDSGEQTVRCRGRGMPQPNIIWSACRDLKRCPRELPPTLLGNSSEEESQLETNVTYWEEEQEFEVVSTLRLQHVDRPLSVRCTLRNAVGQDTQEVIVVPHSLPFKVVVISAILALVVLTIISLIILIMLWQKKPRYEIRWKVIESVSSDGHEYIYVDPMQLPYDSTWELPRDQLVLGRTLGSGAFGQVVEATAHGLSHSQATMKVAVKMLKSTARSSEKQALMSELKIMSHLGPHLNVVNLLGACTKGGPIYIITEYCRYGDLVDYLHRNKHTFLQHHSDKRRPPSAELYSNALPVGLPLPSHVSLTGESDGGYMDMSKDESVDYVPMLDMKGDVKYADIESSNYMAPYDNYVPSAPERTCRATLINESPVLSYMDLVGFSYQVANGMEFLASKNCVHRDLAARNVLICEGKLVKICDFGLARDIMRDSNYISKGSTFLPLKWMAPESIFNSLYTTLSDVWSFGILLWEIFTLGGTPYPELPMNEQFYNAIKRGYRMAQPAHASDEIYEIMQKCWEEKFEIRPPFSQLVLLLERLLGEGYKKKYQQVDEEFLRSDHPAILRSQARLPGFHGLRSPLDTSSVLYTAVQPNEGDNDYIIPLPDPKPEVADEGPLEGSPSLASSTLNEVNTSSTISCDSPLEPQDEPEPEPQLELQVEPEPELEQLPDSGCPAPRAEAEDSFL
As to the kind of experiment: Enzyme inhibitory activity, ADP-Glo kinase assay, PDGFR-β(wt). In kind it is biochemical. The conditions noted are these: read-out: PDGFR-β (IC50 class). The method, then:
In order to evaluate the inhibitory activity of the compounds synthesized according to the above examples on PDGFR-α(wt), PDGFR-β(wt), c-KIT(wt), and c-KIT(D816V) kinases, the following method was performed. The compounds of examples were reacted with purified human PDGFR-α(wt) (Signalchem #P12-18G) enzyme, human PDGFR-β(wt) (Signalchem #P13-11G) enzyme, human c-KIT(wt) (Signalchem #K06-11BG) enzyme, human c-KIT(D816V) (Signalchem #C06-12LG) enzyme, and the enzyme inhibitory abilities were evaluated by the following method.
The reaction buffer was used as a composition of 40 mM Tris-HCl pH7.4, 20 mM MgCl2, 0.5 mg/ml BSA, 50 μM DTT, and the reactions of all the tests were carried out on the reaction buffer. The compound was diluted in 12 steps using a serial dilution method from a 10 mM DMSO stock, and the enzyme activity was measured at a final compound concentration of 10˜0.00005645 μM. During the test, the enzyme activity was confirmed using in vitro ADP-Glo™ kinase assay (Promega) after reacting with the proper concentration of human PDGFR-α(wt) enzyme, human PDGFR-β(wt), human c-KIT(wt) enzyme, and human c-KIT(D816V) enzyme with purified ATP and enzyme substrate at 25° C. for 1˜2 hours. At a ratio of 2:2:1, an enzyme-active reaction solution, an ADP-Glo reaction solution, and an enzyme-active detection solution were reacted to measure the inhibition of the enzyme's activity with luminoscence. Based on the […] of the enzyme activity of the solvent control that was not treated with the compound, the degree of enzyme activity inhibition was calculated according to the treatment concentration of each compound, and the concentration of each compound that inhibits 50% of enzyme activity was determined as IC50 (nM) value and the value was obtained by using GraphPad Prism 8.3.0 (GraphPad software Inc., San Diego) software. (A: IC50≤50 nM; B: 50 nM<IC50≤100 nM; C: 100 nM<IC50≤500 nM; D: IC50>500 nM).

Test [3] has as its system Ba/F3-c-KIT(D816V). As to the kind of experiment: Proliferation inhibitory activity on Ba/F3 cell (CellTiter-Glo, 72 hours), c-KIT(D816V). In kind it is cell-based. In outline: as §1
Where [4] appears, read: Mus musculus, BaF3, c-KIT V560G/D816V cells.
[5] abbreviates: Mus musculus, BaF3, read-out: Ba/F3 (nM) c-KIT (D816V) (GI50 class).

Read-outs that look alike come from different tables or passages of the source.

Regarding `COc1cc2c(-c3ccc(NC(=O)Cc4ccc(C(F)(F)F)cc4)cc3)ncnc2cc1OCCCN1C[C@@H]2C[C@H]1CN2C` [Example 32, N-(4-(6-methoxy-7-(3-((1S,4S)-5-methyl-2,5-diazabicyclo[2.2.1]heptane-2-yl)propoxy)quinazolin-4-yl)phenyl)-2-(4-(trifluoromethyl)phenyl)acetamide], the GI50 in test [1] (setting [4]) and in test [3] (setting [5]) was not above 200 nM throughout. For the same compound, the IC50 in test [2] was not above 50 nM.
Regarding `COc1cc2c(-c3ccc(NC(=O)Cc4ccc(C(F)(F)F)cc4)cc3)ncnc2cc1OCCCN1C2CC1CN(C)C2` [Example 37, N-(4-(6-methoxy-7-(3-(3-methyl-3,6-diazabicyclo[3.1.1]heptane-6-yl)propoxy)quinazolin-4-yl)phenyl)-2-(4-(trifluoromethyl)phenyl)acetamide], the GI50 in test [1] (setting [4]) and in test [3] (setting [5]) was not above 200 nM throughout. Further, in test [2], the half-inhibitory concentration (IC50) was not above 50 nM.
Consider `COc1cc2c(-c3ccc(NC(=O)Cc4ccc(C(F)(F)F)cc4)cc3)ncnc2cc1OCC1CCN(C)CC1` [Example 56, N-(4-(6-methoxy-7-((1-methylpiperidin-4-yl)methoxy)quinazolin-4-yl)phenyl)-2-(4-(trifluoromethyl)phenyl)acetamide], for which the GI50 in test [1] (setting [4]) was not above 200 nM. Further, the concentration for half-maximal inhibition (IC50) in test [2] is not above 50 nM.
Take `COc1cc2c(-c3ccc(NC(=O)Cc4ccc(C(F)(F)F)nc4)cc3)ncnc2cc1OCC1CCNCC1` [Example 59, N-(4-(6-methoxy-7-(piperidin-4-ylmethoxy)quinazolin-4-yl)phenyl)-2-(6-(trifluoromethyl)pyridin-3-yl)acetamide]: the IC50 in test [2] was not above 50 nM. The GI50 in test [3] (setting [5]) lay within 200 to 500 nM.
`CCN1CCC(COc2cc3ncnc(-c4ccc(NC(=O)Cc5ccc(C(F)(F)F)nc5)cc4)c3cc2OC)CC1` [Example 63, N-(4-(7-((1-ethylpiperidin-4-yl)methoxy)-6-methoxyquinazolin-4-yl)phenyl)-2-(6-(trifluoromethyl)pyridin-3-yl)acetamide]: the GI50 in test [1] (setting [4]) and in test [3] (setting [5]) was not above 200 nM throughout. For the same compound, the IC50 in test [2] was not above 50 nM.
Take `CCN1CCC(COc2cc3ncnc(-c4ccc(NC(=O)Cc5cccc(C(F)(F)F)c5)cc4)c3cc2OC)CC1` [Example 64, N-(4-(7-((1-ethylpiperidin-4-yl)methoxy)-6-methoxyquinazolin-4-yl)phenyl)-2-(3-(trifluoromethyl)phenyl)acetamide]: the GI50 in test [1] (setting [4]) and in test [3] (setting [5]) was not above 200 nM throughout. Also, in test [2], the concentration for half-maximal inhibition (IC50) was not above 50 nM.
Turning to `COc1cc2c(-c3ccc(NC(=O)Cc4ccc(Cl)nc4)cc3)ncnc2cc1OCC1CCNCC1` [Example 69, 2-(6-chloropyridin-3-yl)-N-(4-(6-methoxy-7-(piperidin-4-ylmethoxy)quinazolin-4-yl)phenyl)acetamide], the IC50 in test [2] was not above 50 nM. Further, the GI50 in test [3] (setting [5]) is not above 200 nM.
`CCN1CCC(COc2cc3ncnc(-c4ccc(NC(=O)Cc5ccc(Cl)nc5)cc4)c3cc2OC)CC1` [Example 70, 2-(6-chloropyridin-3-yl)-N-(4-(7-((1-ethylpiperidin-4-yl)methoxy)-6-methoxyquinazolin-4-yl)phenyl)acetamide]: the GI50 in test [1] (setting [4]) and in test [3] (setting [5]) was not above 200 nM in each case. Besides, in test [2], the concentration for half-maximal inhibition (IC50) is not above 50 nM.
Consider `CCN1CCC[C@@H](COc2cc3ncnc(-c4ccc(NC(=O)Cc5ccc(C(F)(F)F)cc5)cc4)c3cc2OC)C1` [Example 74, (R)-N-(4-(7-((1-ethylpiperidin-3-yl)methoxy)-6-methoxyquinazolin-4-yl)phenyl)-2-(4-(trifluoromethyl)phenyl)acetamide], for which the GI50 in test [1] (setting [4]) and in test [3] (setting [5]) was not above 200 nM each time. In addition, the IC50 in test [2] was not above 50 nM.
As to `COc1cc2c(-c3ccc(NC(=O)Cc4ccc(C(F)(F)F)cc4)cc3)ncnc2cc1OC[C@H]1CCCNC1` [Example 75, (S)-N-(4-(6-methoxy-7-(piperidin-3-ylmethoxy)quinazolin-4-yl)phenyl)-2-(4-(trifluoromethyl)phenyl)acetamide], the GI50 in test [1] (setting [4]) and in test [3] (setting [5]) was not above 200 nM throughout. Also, in test [2], the IC50 was not above 50 nM.
On to `COCCN1CCC(COc2cc3ncnc(-c4ccc(NC(=O)Cc5ccc(C(F)(F)F)nc5)cc4)c3cc2OC)CC1` [Example 96, N-(4-(6-methoxy-7-((1-(2-methoxyethyl)piperidin-4-yl)methoxy)quinazolin-4-yl)phenyl)-2-(6-(trifluoromethyl)pyridin-3-yl)acetamide], for which the GI50 in test [1] (setting [4]) is not above 200 nM. Moreover, in test [2], the IC50 is not above 50 nM.
The matching figures for `COc1cc2c(-c3ccc(NC(=O)Cc4ccc(C(F)(F)F)nc4)cc3)ncnc2cc1OCC1CCN(C)CC1` [Example 101, N-(4-(6-methoxy-7-((1-methylpiperidin-4-yl)methoxy)quinazolin-4-yl)phenyl)-2-(6-(trifluoromethyl)pyridin-3-yl)acetamide]: not above 200 nM and not above 50 nM.
As for `COc1cc2ncnc(-c3ccc(NC(=O)Cc4ccc(C(F)(F)F)cc4)cc3)c2cc1OCC1CCCN(C(=O)OC(C)(C)C)C1` (centres unmarked) [Example 130, tert-butyl 3-(((7-methoxy-4-(4-(2-(4-(trifluoromethyl)phenyl)acetamido)phenyl)quinazolin-6-yl)oxy)methyl)piperidin-1-carboxylate], the IC50 in test [2] was not above 50 nM. Also, the GI50 in test [3] (setting [5]) fell in the range of 200 to 500 nM.
Regarding `COc1cc2ncnc(-c3ccc(NC(=O)Cc4ccc(C(F)(F)F)cc4)cc3)c2cc1OC1CCN(C(=O)OC(C)(C)C)CC1` [Example 137, tert-butyl 4-((7-methoxy-4-(4-(2-(4-(trifluoromethyl)phenyl)acetamido)phenyl)quinazolin-6-yl)oxy)piperidin-1-carboxylate], the concentration for half-maximal inhibition (IC50) in test [2] was not above 50 nM. The GI50 in test [3] (setting [5]) fell in the range of 200 to 500 nM.
The corresponding values for `COc1cc2ncnc(-c3ccc(NC(=O)Cc4ccc(C(F)(F)F)cc4)cc3)c2cc1OCCCN1CC(CO)(CO)C1` [Example 150] are not above 50 nM and more than 500 nM.
`COc1cc2ncnc(-c3ccc(NC(=O)Cc4ccc(C(F)(F)F)cc4)cc3)c2cc1OCCCN1C[C@H]2C[C@@H]1CN2C` [Example 159, N-(4-(7-methoxy-6-(3-((1R,4R)-5-methyl-2,5-diazabicyclo[2.2.1]heptane-2-yl)propoxy)quinazolin-4-yl)phenyl)-2-(4-(trifluoromethyl)phenyl)acetamide]: the GI50 in test [1] (setting [4]) is 200 to 500 nM; in test [3] (setting [5]), not above 200 nM.
The corresponding values for `COc1cc2ncnc(-c3ccc(NC(=O)Cc4ccc(C(F)(F)F)cc4)cc3)c2cc1OCCCN1CCCC1` [Example 160, N-(4-(7-methoxy-6-(3-(pyrrolidin-1-yl)propoxy)quinazolin-4-yl)phenyl)-2-(4-(trifluoromethyl)phenyl)acetamide] are not above 200 nM and not above 200 nM.
On to `COc1cc2c(-c3ccc(NC(=O)Nc4ccc(Cl)c(C(F)(F)F)c4)cc3)ncnc2cc1OCCCN1CCN(C)CC1` [Example 168, 1-(4-chloro-3-(trifluoromethyl)phenyl)-3-(4-(6-methoxy-7-(3-(4-methylpiperazin-1-yl)propoxy)quinazolin-4-yl)phenyl)urea], for which the IC50 in test [2] is 50 to 100 nM.
“N-(4-(7-methoxy-6-(pyridin-3-ylmethoxy)quinazolin-4-yl)phenyl)-2-(4-trifluoromethyl)phenyl)acetamide [Example 157]”: the GI50 in test [1] (c-KIT V560G/D816V cells) was more than 500 nM; in test [3] (read-out: Ba/F3 (nM) c-KIT (D816V) (GI50 class)), not above 200 nM.
